Data taken from patent publication US20260000075A1, “HERBICIDAL MALONIC ACID MONOAMIDES AND MALONAMIDE ESTERS” (BASF SE, priority 2022, published 2026).

What was measured:
AMARE [1] = assay: greenhouse pre-emergence herbicidal test; format: in vivo, Amaranthus retroflexus; settings: pre-emergence method, scale from 0 to 100
Source text: (§1) The culture containers used were plastic flowerpots containing loamy sand with approximately 3.0% of humus as the substrate. The seeds of the test plants were sown separately for each species.
(§2) For the pre-emergence treatment, the active ingredients, which had been suspended or emulsified in water, were applied directly after sowing by means of finely distributing nozzles. The containers were irrigated gently to promote germination and growth and subsequently covered with transparent plastic hoods until the test plants had rooted.
(§3) This cover caused uniform germination of the test plants, unless this had been impaired by the active ingredients.
(§4) Depending on the species, the test plants were kept at 10-25° C. or 20-35° C., respectively.
(§5) The test period extended over 2 to 4 weeks. During this time, the test plants were tended, and their response to the individual treatments was evaluated.
(§6) Evaluation was carried out using a scale from 0 to 100. 100 means no emergence of the test plants, or complete destruction of at least the aerial moieties, and 0 means no damage, or normal course of growth. A good herbicidal activity is given at values of 70 to <90 and a very good herbicidal activity is given at values of 90 to 100.
(§7) The test plants used in the greenhouse experiments were of the following species: […]

APESV = assay: greenhouse pre-emergence herbicidal test; format: in vivo, Apera spica-venti; settings: pre-emergence method, scale from 0 to 100
Source text: as §1, §2, §3, §4, §5, §6, §7

SETVI [2] = assay: greenhouse post-emergence herbicidal test; format: in vivo, Setaria viridis; settings: post-emergence method, application rate 0.250 kg/ha, scale from 0 to 100
Source text: as §1
(§8) For the post-emergence treatment, the test plants were first grown to a height of 3 to 15 cm, depending on the plant habit, and only then treated with the active ingredients which had been suspended or emulsified in water. For this purpose, the test plants were either sown directly and grown in the same containers, or they were first grown separately as seedlings and transplanted into the test containers a few days prior to treatment.
as §4, §5, §6, §7

ECHCG = assay: greenhouse pre-emergence herbicidal test; format: in vivo, Echinocloa crus-galli; settings: pre-emergence method, scale from 0 to 100
Source text: as §1, §2, §3, §4, §5, §6, §7

AVEFA = assay: greenhouse post-emergence herbicidal test; format: in vivo, Avena fatua; settings: post-emergence method, application rate 1.000 kg/ha, scale from 0 to 100
Source text: as §1, §8, §4, §5, §6, §7

LOLMU = assay: greenhouse pre-emergence herbicidal test; format: in vivo, Lolium multiflorum; settings: pre-emergence method, application rate 1.000 kg/ha, scale from 0 to 100
Source text: as §1, §2, §3, §4, §5, §6, §7

DIGSA = assay: greenhouse pre-emergence herbicidal test; format: in vivo, Digitaria sanguinalis; settings: pre-emergence method, application rate 1.000 kg/ha, scale from 0 to 100
Source text: as §1, §2, §3, §4, §5, §6, §7

AMARE [3] = assay: greenhouse post-emergence herbicidal test; format: in vivo, Amaranthus retroflexus; settings: post-emergence method, application rate 1.000 kg/ha, scale from 0 to 100
Source text: as §1, §8, §4, §5, §6, §7

SETFA = assay: greenhouse pre-emergence herbicidal test; format: in vivo, Setaria faberi; settings: pre-emergence method, application rate 0.500 kg/ha, scale from 0 to 100
Source text: as §1, §2, §3, §4, §5, §6, §7

ALOMY = assay: greenhouse post-emergence herbicidal test; format: in vivo, Alopercurus myosuroides; settings: post-emergence method, scale from 0 to 100
Source text: as §1, §8, §4, §5, §6, §7

SETVI [4] = assay: greenhouse pre-emergence herbicidal test; format: in vivo, Setaria viridis; settings: pre-emergence method, application rate 0.500 kg/ha, scale from 0 to 100
Source text: as §1, §2, §3, §4, §5, §6, §7

Compound: CC1=CCOC1(C(=O)O)C(=O)Nc1cc(Cl)cc(Cl)c1 (stereo not shown) [compound 1.6]
- herbicidal activity against AMARE (AMARE [1]; application rate 0.125 kg/ha): good (A good herbicidal activity is given at values of 70 to <90)
- herbicidal activity against APESV (APESV; application rate 0.125 kg/ha): good (A good herbicidal activity is given at values of 70 to <90)

Compound: O=C(O)C1(C(=O)Nc2cc(F)cc(F)c2)CCO1 (stereo not shown) [compound 11.5]
- herbicidal activity against SETVI (SETVI [2]): very good (a very good herbicidal activity is given at values of 90 to 100)

Compound: CCOC(=O)C1(C(=O)Nc2cc(Cl)cc(Cl)c2)CCO1 (stereo not shown) [compound 11.1, ethyl 2-[(3,5-dichlorophenyl)carbamoyl]oxetane-2-carboxylate]
- herbicidal activity against APESV (APESV; application rate 1.000 kg/ha): good (A good herbicidal activity is given at values of 70 to <90)
- herbicidal activity against ECHCG (ECHCG; application rate 1.000 kg/ha): good (A good herbicidal activity is given at values of 70 to <90)

Compound: O=C(O)C1(C(=O)Nc2cc(F)cc(F)c2)CC=CO1 (stereo not shown) [compound 1.26, 2-[(3,5-difluorophenyl)carbamoyl]-3H-furan-2-carboxylate]
- herbicidal activity against AVEFA (AVEFA): very good (a very good herbicidal activity is given at values of 90 to 100)
- herbicidal activity against LOLMU (LOLMU): very good (a very good herbicidal activity is given at values of 90 to 100)
- herbicidal activity against DIGSA (DIGSA): very good (a very good herbicidal activity is given at values of 90 to 100)
- herbicidal activity against AMARE (AMARE [3]): good (A good herbicidal activity is given at values of 70 to <90)

Compound: 5-[(3,5-difluorophenyl)carbamoyl]-hydrofuran-5-carboxylic acid [compound 1.7]
- herbicidal activity against SETFA (SETFA): good (A good herbicidal activity is given at values of 70 to <90)
- herbicidal activity against ALOMY (ALOMY; application rate 0.500 kg/ha): very good (a very good herbicidal activity is given at values of 90 to 100)
- herbicidal activity against APESV (APESV; application rate 0.500 kg/ha): very good (a very good herbicidal activity is given at values of 90 to 100)
- herbicidal activity against ECHCG (ECHCG; application rate 0.500 kg/ha): good (A good herbicidal activity is given at values of 70 to <90)

Compound: CSCCOC(=O)C1(C(=O)Nc2cc(F)cc(F)c2)C=CCO1 (stereo not shown) [compound 1.9]
- herbicidal activity against SETVI (SETVI [4]): very good (a very good herbicidal activity is given at values of 90 to 100)

Compound: CS(=O)(=O)CCOC(=O)C1(C(=O)Nc2cc(F)cc(F)c2)CCO1 (stereo not shown) [compound 11.8]
- herbicidal activity against AMARE (AMARE [1]; application rate 0.250 kg/ha): good (A good herbicidal activity is given at values of 70 to <90)

Compound: CCOC(=O)C1(C(=O)Nc2cc(F)cc(F)c2)CC=CO1 (stereo not shown) [compound 1.25, ethyl 2-[(3,5-difluorophenyl)carbamoyl]-3H-furan-2-carboxylate]
- herbicidal activity against ALOMY (ALOMY; application rate 0.250 kg/ha): very good (a very good herbicidal activity is given at values of 90 to 100)
